In patent US20080051418A1, “Arylalkanoic Acid Derivative” (priority 2004, published 2008):
Like-named read-outs stand apart in the source and are kept apart here.

What was measured:
[1] = system: KKA^y mice; test: Plasma antiatherogenic index increasing action in mice; type: in vivo; conditions: Mus musculus, po, 96 h, 4 days, increase rate of (HDL cholesterol/total cholesterol)×100, non-administration group = 100%; for change in vivo at 0.005 %: 0.005% in powder diet
Description: The test compound was mixed with a powder diet (CE-2, CLEA JAPAN, INC.) at a proportion of 0.005% (0.01% for the compound of Example 105) and freely given to KKA^y mice (9 to 12-week-old, 5 mice per group) which are obesity-insulin independent diabetes mellitus (type-2 diabetes) models, for 4 days. During this period, water was freely given. The blood was drawn from fundus and the components were measured using the plasma separated from the blood. The total cholesterol was quantified using L Type Wako cholesterol (Wako Pure Chemical Industries, Ltd.). In addition, an HDL cholesterol precipitation reagent (Wako Pure Chemical Industries, Ltd.) was added to a part of the plasma to allow precipitation of a non-HDL lipoprotein, and the cholesterol (HDL cholesterol) of the supernatant was measured. The plasma antiatherogenic index [(HDL cholesterol/total cholesterol)×100] was calculated from these cholesterol values.

[2] = system: KKA^y mice; test: Blood glucose and blood lipid (triglyceride) lowering action in mice; type: in vivo; conditions: Mus musculus, po, 96 h, 4 days, non-administration group = 100%; for inhibition in vivo at 0.005 %: 0.005% in powder diet; for inhibition in vivo at 0.01 %: 0.01% in powder diet (compound of Example 105)
Description: The test compound was mixed with a powder diet (CE-2, CLEA JAPAN, INC.) at a proportion of 0.005% (0.01% for the compound of Example 105) and freely given to KKA^y mice (9 to 12-week-old, 5 mice per group) which are obesity-insulin independent diabetes mellitus (type-2 diabetes) models, for 4 days. During this period, water was freely given. The blood was drawn from the orbital venous plexus. Glucose and triglyceride in the plasma separated from the blood were quantitated using L Type Wako Glu2 (Wako Pure Chemical Industries, Ltd.) and L Type Wako TG•H (Wako Pure Chemical Industries, Ltd.), respectively, according to an enzyme method.

[3] = target: T1, PPARγ-RXRα heterodimer (Homo sapiens, UniProt P37231); test: PPARγ-RXRα heterodimer ligand activity (luciferase reporter); type: cell-based; conditions: PPARγ:RXRα:4ERPP/CHO-K1 cells, 18-24 hr, concentration showing 50% of the maximum induction rate
T1 construct: expressed in transfected cells; host or cells: CHO-K1
T1 sequence (P37231 1-505): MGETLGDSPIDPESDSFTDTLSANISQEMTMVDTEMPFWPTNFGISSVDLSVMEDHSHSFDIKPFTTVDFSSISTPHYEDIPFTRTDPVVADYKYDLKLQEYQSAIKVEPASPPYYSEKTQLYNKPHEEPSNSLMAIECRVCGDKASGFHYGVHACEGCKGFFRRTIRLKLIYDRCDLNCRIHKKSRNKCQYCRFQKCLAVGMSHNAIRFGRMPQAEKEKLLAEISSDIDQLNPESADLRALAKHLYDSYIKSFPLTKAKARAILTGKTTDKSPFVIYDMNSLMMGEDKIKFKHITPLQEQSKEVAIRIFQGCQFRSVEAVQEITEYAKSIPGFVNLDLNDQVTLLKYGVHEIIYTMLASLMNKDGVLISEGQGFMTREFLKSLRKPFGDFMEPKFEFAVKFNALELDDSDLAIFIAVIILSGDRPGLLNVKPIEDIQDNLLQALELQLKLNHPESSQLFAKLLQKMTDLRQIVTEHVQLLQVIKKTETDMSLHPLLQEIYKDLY
T1 sequence (P19793 1-462 partner): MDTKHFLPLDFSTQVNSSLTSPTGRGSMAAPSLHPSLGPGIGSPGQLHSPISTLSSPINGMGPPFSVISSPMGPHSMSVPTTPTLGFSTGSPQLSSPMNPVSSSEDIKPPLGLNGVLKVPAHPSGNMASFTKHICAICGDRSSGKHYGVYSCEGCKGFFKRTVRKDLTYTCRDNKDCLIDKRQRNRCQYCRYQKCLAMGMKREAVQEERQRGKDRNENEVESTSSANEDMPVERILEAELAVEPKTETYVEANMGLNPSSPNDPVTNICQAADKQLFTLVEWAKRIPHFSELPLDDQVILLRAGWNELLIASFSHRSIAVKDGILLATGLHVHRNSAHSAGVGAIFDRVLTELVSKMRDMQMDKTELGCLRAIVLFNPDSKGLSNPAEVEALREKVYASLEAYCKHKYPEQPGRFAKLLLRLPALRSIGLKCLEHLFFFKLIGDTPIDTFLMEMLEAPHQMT
Outline: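 CHO-K1 cells carrying PPARγ, RXRα and a 4ERPP luciferase reporter, exposed to compound 18–24 h at 37 °C in Ham F12 with 0.1% fatty acid-free BSA. Luciferase induction expressed relative to untreated cells (= 1). EC50 is concentration giving 50% of maximal induction.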

[4] = target: T2, PPARδ-RXRα heterodimer (Homo sapiens, UniProt Q03181); test: PPARδ-RXRα heterodimer ligand activity (luciferase reporter); type: cell-based; conditions: transformant of Reference Example 9a of WO03/099793, 36-48 hr, concentration showing 50% of the maximum induction rate
T2 construct: expressed in transfected cells
T2 sequence (Q03181 1-441): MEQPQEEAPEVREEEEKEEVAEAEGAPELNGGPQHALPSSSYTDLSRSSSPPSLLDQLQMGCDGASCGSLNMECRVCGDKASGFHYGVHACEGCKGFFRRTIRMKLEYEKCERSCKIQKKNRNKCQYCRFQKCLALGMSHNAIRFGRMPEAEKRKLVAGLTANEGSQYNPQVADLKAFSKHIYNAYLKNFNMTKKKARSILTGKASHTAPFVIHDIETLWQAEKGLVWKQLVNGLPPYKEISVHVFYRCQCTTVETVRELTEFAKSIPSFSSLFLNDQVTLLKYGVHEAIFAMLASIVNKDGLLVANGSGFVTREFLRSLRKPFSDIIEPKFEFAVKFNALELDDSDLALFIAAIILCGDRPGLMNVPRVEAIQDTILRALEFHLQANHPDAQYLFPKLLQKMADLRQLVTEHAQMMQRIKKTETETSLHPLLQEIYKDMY
T2 sequence (P19793 1-462 partner): T1 sequence (P19793 1-462 partner)
Description: The transformant described in Reference Example 9a of WO03/099793 was suspended in a DMEM medium [manufactured by Life technologies, Inc., US] containing 0.1% fatty acid-free bovine serum albumin (BSA) (manufactured by Wako Pure Chemical Industries, Ltd.), and inoculated to each well of a 96 well white plate [manufactured by Corning Coster Corporation, US] by 80 μl to 1×10^4 cells/well. Then, the test compound (20 μl) was added, and cultured under the conditions of 37° C., 5% CO2 for 36-48 hr. The medium was removed from the 96 well white plate, 40 μl of PicaGene LT 7.5 (manufactured by Wako Pure Chemical Industries, Ltd.) diluted 2-fold with HBSS (HANKS' BALANCED SALT SOLUTION) [manufactured by BIO WHITTAKER, US] was added and, after stirring, the luciferase activity was determined using the 1420 ARVO Multilabel Counter [manufactured by PerkinElmer, US].
The induction rate was calculated from the luciferase activity of each test compound based on the luciferase activity of the test compound non-administration group as 1. The test compound concentration and the induction rate were analyzed by PRISM [manufactured by GraphPad Software, Inc., US] to calculate EC50 value (compound concentration showing 50% of the maximum value of induction rate) of the test compound.

[5] = lowering rate of plasma glucose, read-out: hypoglycemic action (%)
[6] = lowering rate of plasma triglyceride, read-out: hypolipidemic action (%)

| SMILES | EC50 [3] [nM] | EC50 [4] [nM] | melting point [°C] | change in vivo at 0.005 % [1] [%] | inhibition in vivo at 0.005 % [2, 5] [%] | inhibition in vivo at 0.005 % [2, 6] [%] | change in vivo at 0.01 % ([1]; 0.01% in powder diet (compound of Example 105)) [%] | inhibition in vivo at 0.01 % [2, 5] [%] | inhibition in vivo at 0.01 % [2, 6] [%] |
| --- | --- | --- | --- | --- | --- | --- | --- | --- | --- |
| COc1cccc(CC(=O)O)c1OCCCc1cc(OC(C)C)nn1Cc1ccc(Cl)cc1Cl [Example 16, (2-{3-[1-(2,4-dichlorobenzyl)-3-isopropoxy-1H-pyrazol-5-yl]propoxy}-3-methoxyphenyl)acetic acid] | 2.3 | 14 | – | 13 | 57 | 28 | – | – | – |
| CCCOc1cc(CCCOc2c(CC(=O)O)cccc2OC)n(Cc2ccccc2)n1 [Example 56, {2-[3-(1-benzyl-3-propoxy-1H-pyrazol-5-yl)propoxy]-3-methoxyphenyl}acetic acid] | – | – | – | 12 | – | – | – | – | – |
| COCOc1ccc(CCCOc2c(CC(=O)O)cccc2OC)c(Oc2ccc(C(F)(F)F)cn2)c1 [Example 105, {3-methoxy-2-[3-(4-(methoxymethoxy)-2-{[5-(trifluoromethyl)pyridin-2-yl]oxy}phenyl)propoxy]phenyl}acetic acid] | – | – | – | – | – | – | 13 | 64 | 64 |
| COc1cccc(CC(=O)O)c1OCCCc1ccc(OC(C)C)cc1Oc1ccc(C(F)(F)F)cn1 [Example 107, {2-[3-(4-isopropoxy-2-{[5-(trifluoromethyl)pyridin-2-yl]oxy}phenyl)propoxy]-3-methoxyphenyl}acetic acid] | – | – | – | 13 | – | – | – | – | – |
| CCn1cc(CC(=O)O)c(OCCCc2ccc(OC(C)C)cc2Oc2ccc(C(F)(F)F)cn2)n1 [Example 108, {1-ethyl-3-[3-(4-isopropoxy-2-{[5-(trifluoromethyl)pyridin-2-yl]oxy}phenyl)propoxy]-1H-pyrazol-4-yl}acetic acid] | – | – | – | 12 | – | – | – | – | – |

Further lines, with some results ahead:

| EC50 [3] [nM] | EC50 [4] [nM] | melting point [°C] | SMILES | change in vivo at 0.005 % [1] [%] | inhibition in vivo at 0.005 % [2, 5] [%] | inhibition in vivo at 0.005 % [2, 6] [%] | change in vivo at 0.01 % ([1]; 0.01% in powder diet (compound of Example 105)) [%] | inhibition in vivo at 0.01 % [2, 5] [%] | inhibition in vivo at 0.01 % [2, 6] [%] |
| --- | --- | --- | --- | --- | --- | --- | --- | --- | --- |
| 15 | – | – | CCn1cc(CC(=O)O)c(OCCCc2cc(OC(C)C)nn2Cc2ccc(Cl)cc2Cl)n1 [Example 22, (3-{3-[1-(2,4-dichlorobenzyl)-3-isopropoxy-1H-pyrazol-5-yl]propoxy}-1-ethyl-1H-pyrazol-4-yl)acetic acid] | 12 | 49 | 53 | – | – | – |
| 39 | – | 116 to 117 | COc1cccc(CC(=O)O)c1OCCCc1cc(OC(C)C)nn1Cc1ccc(C(F)(F)F)cc1 [Example 51, [2-(3-{3-isopropoxy-1-[4-(trifluoromethyl)benzyl]-1H-pyrazol-5-yl}propoxy)-3-methoxyphenyl]acetic acid] | 15 | – | – | – | – | – |
| 1.4 | 21 | – | CCCOc1cc(CCCOc2c(CC(=O)O)cccc2OC)n(Cc2ccc(Cl)cc2Cl)n1 [Example 57, (2-{3-[1-(2,4-dichlorobenzyl)-3-propoxy-1H-pyrazol-5-yl]propoxy}-3-methoxyphenyl)acetic acid] | 15 | – | – | – | – | – |
| 34 | – | – | COc1ccccc1Cn1nc(OC(C)C)cc1CCCOc1c(CC(=O)O)cccc1OC [Example 62, (2-{3-[3-isopropoxy-1-(2-methoxybenzyl)-1H-pyrazol-5-yl]propoxy}-3-methoxyphenyl)acetic acid] | 13 | 48 | 61 | – | – | – |
| 3.8 | 77 | 122 to 123 | COCOc1ccc(CCCOc2nn(C)cc2CC(=O)O)c(Oc2ncc(C(F)(F)F)cc2Cl)c1 [Example 111, (3-{3-[2-{[3-chloro-5-(trifluoromethyl)pyridin-2-yl]oxy}-4-(methoxymethoxy)phenyl]propoxy}-1-methyl-1H-pyrazol-4-yl)acetic acid] | 11 | 64 | 45 | – | – | – |
| 0.42 | 2.5 | 86 to 88 | CC(C)Oc1ccc(CCCOc2cc(CCC(=O)O)n(-c3ccccc3)n2)c(Oc2ncc(C(F)(F)F)cc2Cl)c1 [Example 136, 3-{3-[3-(2-{[3-chloro-5-(trifluoromethyl)pyridin-2-yl]oxy}-4-isopropoxyphenyl)propoxy]-1-phenyl-1H-pyrazol-5-yl}propanoic acid] | – | 57 | 38 | – | – | – |
| 1.6 | 6.9 | 73 to 74 | CCn1nc(OCCCc2ccc(OC(C)C)cc2Oc2ncc(C(F)(F)F)cc2Cl)cc1CCC(=O)O [Example 141, 3-{3-[3-(2-{[3-chloro-5-(trifluoromethyl)pyridin-2-yl]oxy}-4-isopropoxyphenyl)propoxy]-1-ethyl-1H-pyrazol-5-yl}propanoic acid] | – | 44 | 41 | – | – | – |
